Tested on: peripheral blood mononuclear cells (PBMCs)
Test: IFNα release assay from peripheral blood mononuclear cells (HTRF)
Assay type: cell-based
Conditions: freshly isolated human PBMC, IFNα by HTRF, geometric mean when tested more than once
Description: The Examples described were tested for biological activity in functional cellular assays using HEK293 cells stably overexpressing human TLR7 or TLR8. The assays tested for the ability of each Example to stimulate secretion of interferon alpha (IFNα) in human primary blood mono nuclear cells (PBMC).
To determine the ability of each Example to induce the release of interferon alpha (IFNα) from freshly isolated peripheral blood mononuclear cells (PBMCs), a Homogeneous Time-Resolved Fluorescence (HTRF) assay was utilized. Human whole blood was collected from healthy donors via vein puncture in accordance with Pfizer protocols (Protocol No. GOHW RDP-01), approved by the Shulman Institutional Review Board. 50 ml of human venous blood sample from individual donors was heparinized by addition to a conical tube containing 714 units of Heparin Sodium Injection MDV (Fresenius Kabi, cat #70041) followed by gentle inversion of the tube several times. Blood was then transferred to a flask, the conical tube was rinsed with 40 ml of PBS containing 2 mM EDTA (PBS-EDTA), and the rinse was added to the blood flask with gently mixing. 30 ml of the diluted blood was added to 3 separate histopaque tubes (Sigma, cat #A0561), applying directly to the frit. Histopaque tubes were then spun for 15 min at 1000×g in a tabletop centrifuge. Following density separation, excess upper phase of plasma was aspirated to within ˜5 ml above the interphase and remaining plasma along with the cloudy interphase containing PBMCs were gently decanted into a new conical tube. 15 ml of PBS-EDTA was added to the histopaque tube and swirled gently to remove remaining PBMCs that adhered to the tube wall and this wash was added to the existing PBMCs in the tube. The volume of the tube was brought to 40 ml with PBS-EDTA and tubes were spun at 250×g for 12 minutes at room temperature. After aspiration of the supernatant, the pellet was gently resuspended with 10 ml of PBS-EDTA and centrifuged again at 250×g for 12 minutes. The resulting supernatant was decanted, and the pellet was resuspended in 20 ml of ACK lysing buffer (ThermoFisher, cat #A10492-01) followed by incubation at room temperature for 5 minutes. The volume of each tube was brought to 50 ml with the addition of PBS-EDTA and tubes were spun at 177×g for 12 minutes at room temperature. The PBMC pellet was again resuspended in 10 ml of PBS without EDTA and tubes were spun for a final time at 177×g for 10 minutes. The supernatant was decanted and PBMCs were resuspended in Assay Media (RPMI base media with 10% FBS heat inactivated, 2 mM Glutamax and Penicillin/Streptomycin).
Each Example was prepared for the assay using 11-point half log serial dilutions from a 2.5 mM DMSO stock solution and 400 nl was spotted into 384 well Viewplate (Perkin Elmer, cat #6007480). Positive and negative controls (previously described) were also spotted within the assay plate and were used to determine percent effect during the analysis process. PBMCs were counted and plated at a density of 100,000 cells/[…]/well; plates were covered with a prewet microclime lid to prevent evaporation and incubated for 24 hrs at 37° C. in a 5% CO2 atmosphere. At the end of the incubation, the microclime lid was removed and the plates were spun at 1000 rpm for 5 minutes. 16 μl of conditioned media from the cell plate was transferred into a separate 384 well low-volume plate (Greiner One, 784080). IFNα levels were quantitated using an HTRF® kit (Cisbio, cat #62HIFNAPEG) according to the manufacturer's instructions. The kit supplies two different specific antibodies, one labelled with D2 (acceptor) and the other labelled with cryptate (donor), and detection buffer. The antibody stocks were diluted […] in detection buffer. For one 384 well plate, 62.5 μl of D2 antibody stock and 62.5 μl of cryptate antibody stock was added to 2.375 ml of detection buffer and mixed well. […]

Compound | EC50 (Homo sapiens, PBMC, 24 h) | EC50 (24 hrs)
Cc1nc(N)c2nc(CC(F)(F)F)n(CC(C)(CO)CO)c2c1C [Example 8, 2-((4-amino-6,7-dimethyl-2-(2,2,2-trifluoroethyl)-1H-imidazo[4,5-c]pyridin-1-yl)methyl)-2-methylpropane-1,3-diol] | 48 nM | 
CCc1nc2c(N)nc3ccccc3c2n1CC(C)(CO)CO [Example 15, 2-((4-amino-2-ethyl-1H-imidazo[4,5-c]quinolin-1-yl)methyl)-2-methylpropane-1,3-diol] | 12 nM | 
CCCc1nc2c(N)nc3ccccc3c2n1CC(C)(CO)CO [Example 16, 2-((4-amino-2-propyl-1H-imidazo[4,5-c]quinolin-1-yl)methyl)-2-methylpropane-1,3-diol] | 11 nM | 
CCOCc1nc2c(N)nc3ccccc3c2n1CC(C)(CO)CO [Example 3, 2-((4-amino-2-(ethoxymethyl)-1H-imidazo[4,5-c]quinolin-1-yl)methyl)-2-methylpropane-1,3-diol] | 7 nM | 
CCCCc1nc2c(N)nc3c(c2n1CC(C)(CO)CO)CCC3 [Example 14, 2-((4-amino-2-butyl-7,8-dihydrocyclopenta[b]imidazo[4,5-d]pyridin-1(6H)-yl)methyl)-2-methylpropane-1,3-diol] | 7 nM | 
CCOCc1nc2c(N)nc(C)c(C)c2n1CC(C)(CO)CO [Example 2, 2-((4-amino-2-(ethoxymethyl)-6,7-dimethyl-1H-imidazo[4,5-c]pyridin-1-yl)methyl)-2-methylpropane-1,3-diol] | 19 nM | 
CCCCc1nc2c(N)nc3ccccc3c2n1CC(C)(CO)CO [Example 10, 2-((4-amino-2-butyl-1H-imidazo[4,5-c]quinolin-1-yl)methyl)-2-methylpropane-1,3-diol] | 1 nM | 
CCOCc1nc2c(N)nc(C)c(C)c2n1CC(C)(CO)COC (single isomer, unassigned) [Example 7, 3-(4-amino-2-(ethoxymethyl)-6,7-dimethyl-1H-imidazo[4,5-c]pyridin-1-yl)-2-(methoxymethyl)-2-methylpropan-1-ol] |  | 198 nM
CCOCc1nc2c(N)nc(C)c(C)c2n1CC(CO)CO [Example 1, 2-((4-amino-2-(ethoxymethyl)-6,7-dimethyl-1H-imidazo[4,5-c]pyridin-1-yl)methyl)propane-1,3-diol] | 99 nM | 
CCCCc1nc2c(N)nc3c(c2n1CC(C)(CO)CO)CCCC3 [Example 13, 2-((4-amino-2-butyl-6,7,8,9-tetrahydro-1H-imidazo[4,5-c]quinolin-1-yl)methyl)-2-methylpropane-1,3-diol] | 0.4 nM | 
CCOCc1nc2c(N)nc(C)c(C)c2n1CC(CC)(CO)CO [Example 9, 2-((4-amino-2-(ethoxymethyl)-6,7-dimethyl-1H-imidazo[4,5-c]pyridin-1-yl)methyl)-2-ethylpropane-1,3-diol] | 2 nM | 
CCOCc1nc2c(N)nc(C)c(C)c2n1CC(C)(CO)COC (single isomer, unassigned) [Example 6, 3-(4-amino-2-(ethoxymethyl)-6,7-dimethyl-1H-imidazo[4,5-c]pyridin-1-yl)-2-(methoxymethyl)-2-methylpropan-1-ol] |  | 22 nM

— US11976064B2, “Toll-like receptor agonists” (Pfizer Inc., priority 2019, dated 2024)
